In patent US20110301169A1, “Therapies for Treating Cancer Using Combinations of COX-2 Inhibitors and Antimetabolites” (priority 2007, published 2011):

Assays:
[1] = human, in vivo
[2] = Oral pharmacokinetics in rodents; type: in vivo, mice, rats
Experimental: (§1) Peak plasma concentrations were achieved between 1 and 3 hours after a dose of 5 mg/kg.

[3] = Oral pharmacokinetics in dogs; type: in vivo; conditions: dog, plasma, 5 mg/kg, read-out: elimination half life (t1/2)
Experimental: as §1

[4] = Oral pharmacokinetics in monkeys; type: in vivo; conditions: monkey, plasma, 5 mg/kg, read-out: elimination half life (t1/2) (converted)
Experimental: as §1

clinical = conditions: human, in vivo
Experimental: as §1

[5] = test system: human breast cancer cells (SK-BR-3); test: SK-BR-3 model, tumor volume; type: in vivo, nude mice; conditions: COX-2 inhibitor in the diet, trastuzumab intravenously
Experimental: Mice are injected subcutaneously in the left paw (1×10^6 tumor cells suspended in 30% Matrigel) and tumor volume is evaluated using a phlethysmometer twice a week for 30-60 days. Implantation of human breast cancer cells (SK-BR-3) into nude mice produces tumors that will reach 0.6-2 ml between 30-50 days. […] The data is expressed as the mean+/−SEM. Student's and Mann-Whitney tests are used to assess differences between means using the InStat software package.
The efficacy of both agents are determined by measuring tumor volume.
B. In a second assay, mice injected with SK-BR-3 cancer cells are then treated with 5-FU on days 12 through 15. […] The efficacy of both agents are determined by measuring tumor volume.

HER2 [ErbB2] = HER2 [ErbB2] (Homo sapiens, UniProt P04626); conditions: cited from earlier work
BT474 tumor = test: BT474 model, tumor growth delay (Example 9); type: in vivo, Female SCID mice; conditions: Groups 3, 4: 30 mg/kg, po, qd to end
Experimental: Female SCID mice were injected subcutaneously in the flank (1 mm^3 BT474 tumor) and tumor volume was evaluated using a caliper twice a week for up to 90 days, longer for responders. Upon reaching an average tumor size of 100-200 mg the treatment was begun. […] The endpoint for the study was when tumor volume reached 0.75 gins or 90 days, which ever came first.

[6] = test system: MX1 (ER−, erbB2−) breast carcinoma; test: MX1 human breast carcinoma xenograft, tumor growth delay (Example 11); type: in vivo, female athymic nude mice; conditions: alone
Experimental: The compound was administered orally on a continuous daily regimen in female athymic nude mice bearing established sc-implanted xenografts.

[7] = third assay (C): 5-FU i.p. 50 mg/kg on days 14 through 17

Chain of HER2 [ErbB2] (P04626 23-1255): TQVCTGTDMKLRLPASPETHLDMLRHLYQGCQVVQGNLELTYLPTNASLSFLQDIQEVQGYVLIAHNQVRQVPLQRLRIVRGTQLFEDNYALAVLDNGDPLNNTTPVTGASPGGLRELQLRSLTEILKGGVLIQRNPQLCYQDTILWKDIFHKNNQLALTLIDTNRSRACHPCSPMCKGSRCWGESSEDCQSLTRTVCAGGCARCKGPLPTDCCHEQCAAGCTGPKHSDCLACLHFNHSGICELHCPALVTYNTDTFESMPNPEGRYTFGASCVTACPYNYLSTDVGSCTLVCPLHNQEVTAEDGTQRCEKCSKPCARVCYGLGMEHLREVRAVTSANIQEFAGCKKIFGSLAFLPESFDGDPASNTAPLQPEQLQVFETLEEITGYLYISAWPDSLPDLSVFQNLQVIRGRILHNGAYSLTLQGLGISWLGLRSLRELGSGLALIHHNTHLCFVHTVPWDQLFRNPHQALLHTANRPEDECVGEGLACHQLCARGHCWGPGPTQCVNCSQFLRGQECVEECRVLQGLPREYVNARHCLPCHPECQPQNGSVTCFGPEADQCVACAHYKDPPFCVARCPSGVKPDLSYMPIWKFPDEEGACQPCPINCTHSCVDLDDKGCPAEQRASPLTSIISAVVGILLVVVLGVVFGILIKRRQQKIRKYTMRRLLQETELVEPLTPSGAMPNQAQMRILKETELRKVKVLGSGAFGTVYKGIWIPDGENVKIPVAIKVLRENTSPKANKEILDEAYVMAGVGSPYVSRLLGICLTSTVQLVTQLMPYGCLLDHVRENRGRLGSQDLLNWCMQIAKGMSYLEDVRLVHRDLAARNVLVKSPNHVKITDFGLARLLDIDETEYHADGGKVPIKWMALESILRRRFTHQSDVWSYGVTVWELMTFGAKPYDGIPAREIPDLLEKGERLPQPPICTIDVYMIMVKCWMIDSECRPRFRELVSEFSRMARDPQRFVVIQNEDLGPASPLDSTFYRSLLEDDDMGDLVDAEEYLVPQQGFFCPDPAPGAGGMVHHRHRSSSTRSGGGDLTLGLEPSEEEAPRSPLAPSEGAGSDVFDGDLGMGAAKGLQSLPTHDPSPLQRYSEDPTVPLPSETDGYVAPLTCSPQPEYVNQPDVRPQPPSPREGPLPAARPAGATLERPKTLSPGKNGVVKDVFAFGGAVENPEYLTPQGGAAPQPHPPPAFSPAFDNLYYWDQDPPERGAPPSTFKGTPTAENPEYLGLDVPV

Question: Which “gastric or duodenal toxicity” value [1] does the source give for `CCOc1ccc(-c2cc(C)cn2-c2ccc(S(N)(=O)=O)cc2)cc1` here?
Answer: no increase in gastric or duodenal toxicity compared to placebo

Question: What about the half-life ([2]; mouse, rat, plasma, po, 5 mg/kg, rodents, read-out: elimination half life (t1/2)) of the same compound?
Answer: 4 to 5 h

Question: And the Oral availability ([2]; rodent, compared with dogs and monkeys)?
Answer: greatest in rodent

Question: And the half-life [3]?
Answer: 4 to 5 h

Question: And the half-life [4]?
Answer: ~2 h

Question: What about the half-life (clinical) of the same compound?
Answer: 15 to 18 h

Question: Which “reduction in tumor volume” value ([5]; second assay (B): 5-FU i.p. 50 mg/kg on days 12-15) does the source give for `O=c1[nH]cc(F)c(=O)[nH]1` [5-FU] here?
Answer: 61%

Question: What about the “reduction in tumor volume” value [5, 7] of the same compound?
Answer: 35%

Question: For `COCC(=O)NC/C=C/c1ccc2ncnc(Nc3ccc(Oc4ccc(C)nc4)c(C)c3)c2c1` [CP-724,714], which Ki (HER2 [ErbB2]) is on record?
Answer: 7 nM

Question: For `Cc1ccc(-c2cc(C(F)(F)F)nn2-c2ccc(S(N)(=O)=O)cc2)cc1` [celecoxib], which “% tumor growth delay” value (BT474 tumor) is on record?
Answer: −28%

Question: What about the “Median Total Time to Endpoint” value (BT474 tumor) of the same compound?
Answer: 27.5 days

Question: What about the Difference from control (BT474 tumor; difference in median time to endpoint) of the same compound?
Answer: −10.7

Question: With `Nc1nc2[nH]cc(CCc3ccc(C(=O)N[C@@H](CCC(=O)[O-])C(=O)[O-])cc3)c2c(=O)[nH]1.[Na+].[Na+]` [pemetrexed] as the compound, how does the “TGD (in words)” value [6] read?
Answer: no TGD

Question: For `Cc1onc(-c2ccccc2)c1-c1ccc(S(N)(=O)=O)cc1` [valdecoxib], which “reduction in tumor volume” value [5, 7] is on record?
Answer: 69%
